Numbers after ± are expanded uncertainties.
Details: 298.15 K; 101.33 kPa; Crystal; X-ray diffraction

| mass density [kg/m3] | Structure (SMILES) |
| --- | --- |
| 1740 ± 2 | O.O.O.O.O.O.O.O=C([O-])c1cccc(C(=O)[O-])n1.O=C([O-])c1cccc(C(=O)[O-])n1.[Cu+2].[K+].[K+] [dipotassium copper 2,6-pyridinedicarboxylate heptahydrate] |
| 1723 ± 2 | O.O.O.O.O.O.O.O=C([O-])c1cccc(C(=O)[O-])n1.O=C([O-])c1cccc(C(=O)[O-])n1.[K+].[K+].[Ni+2] [dipotassium nickel 2,6-pyridinedicarboxylate heptahydrate] |
